Paper PMC3923716 (PLoS Neglected Tropical Diseases, 2014)
Where “and” joins values, the source holds several entries; their conditions need not be identical. Equal values may be shown once. Marks after values point to notes of the source that are not given here.

Columns and labels:
B. pahangi Hsp90 = molecular target: T1, B. pahangi Hsp90 (Brugia pahangi, UniProt O61998); assay: Competition FP assay (displacement of Cy3B-GA), B. pahangi lysate; format: binding; conditions: FP assay; best fit (95% confidence intervals); read-out: B. pahangi IC50
T1 construct: Adult worms of B. pahangi were obtained from infected jirds; from tissue; host or cells: whole adult B. pahangi worms, ground and lysed in HFB buffer
Description: Adult worms of B. pahangi were obtained from infected jirds after 3–4 months, exactly as described previously and were frozen in liquid nitrogen, ground in a pestle and mortar to a fine powder and re-suspended in an appropriate volume of HFB assay buffer (20 mM HEPES, pH 7.3, 50 mM KCl, 5 mM MgCl2, 20 mM Na2MoO4, 1% NP40). Protein concentrations were estimated using the BioRad protein assay. At this point lysates were freeze-dried for shipping to the USA.
(§1) The FP assay was set up essentially as described previously, [25]. […] The equilibrium binding of Cy3B-GA and recombinant human Hsp90α (Enzo Life Sciences, Farmingdale, NY USA) or parasite lysate was determined by creating a two-fold dilution series of protein/extract for an eleven-point curve with the first column containing no protein. […] All FP values are expressed in millipolarization (mP) units with the mP value of free Cy3B-GA probe set to 50. Equilibrium binding constants were determined by nonlinear regression using a one-site binding model (GraphPad Prism software).
(§2) The relative binding affinities of inhibitors to human or parasite-derived Hsp90 was determined using competitive FP binding assays. […] For parasite-derived Hsp90, an amount of parasite lysate resulting in 50% of maximal Cy3B-GA binding was used. […] Stock solutions of each compound were prepared in DMSO at a concentration of 10 mM and 3-fold serial dilutions prepared in DMSO for eleven point curves. […] The final concentration of Cy3B-GA was 6 nM and the final DMSO concentration in all wells was 0.5%. Free Cy3B-GA (mP set to 50) and buffer only (background) wells were included as controls on each plate. Plates were incubated at 8°C with gentle shaking for 20 h.

B. malayi Hsp90 = B. malayi Hsp90 (Brugia malayi, UniProt A0A0H5S7Y7); assay: Competition FP assay (displacement of Cy3B-GA), B. malayi lysate; format: binding; conditions: best fit (95% confidence intervals), read-out: B. malayi IC50
Description: as §1, §2

Brugia Hsp90 = assay: Competition FP assay, Brugia Hsp90 (species not separated); format: binding; conditions: read-out: IC50 for binding to Brugia Hsp90
Description: as §1, §2

[1] = test system: B. pahangi Mf (microfilariae); assay: Mf viability in vitro; format: cell-based, Brugia pahangi; conditions: Mf
Description: As adult Brugia worms are limited in numbers, initial experiments assessed the effect of each drug on Mf viability. Mf were purified from infected animals essentially as described previously. In brief, following lavage of the peritoneal cavity of an infected animal with Hanks Balanced Salt Solution (HBSS) pre-warmed to 37°C, Mf were collected by centrifugation and then purified from host cells by centrifugation through lymphoprep (Sigma). This procedure was repeated twice. Mf were collected from the pellet, washed twice in HBSS and once in worm culture medium (WCM) which comprised RPMI 1640, (Invitrogen Cat No: 52400), containing 5% heat inactivated fetal calf serum, 1% glucose, 100 units/ml penicillin and 100 µg/ml streptomycin (all Invitrogen). Mf were then dispensed into the wells of a 24-well plate to give approximately 200 Mf in 2.0 ml, using a single well for each drug concentration. All procedures were carried out using aseptic techniques. The five novel compounds, plus GA and medium alone controls, were tested three times against Mf over the full range of concentrations.

adult female B. pahangi [2] = assay: Adult female worm assay in vitro (Mf output and adult viability), continuous exposure; format: cell-based, Brugia pahangi
Description: For adult worm assays, adult female B. pahangi, 3–4 months old, were incubated individually in 2.0 ml of WCM overnight in 24-well plates and pre-screened for Mf production. […] For the drug experiments, six female worms of B. pahangi for each concentration of drug were cultured individually in 24-well plates in 2.0 ml of WCM containing drug, or carrier alone (DMSO) at a concentration equal to that in the highest concentration of drug. In some experiments, GA was used as a positive control. Initially, all five compounds were tested over selected concentrations starting at 2 µM to 100 nM (see Results for details). For Hsp90 inhibitors, Mf output by individual female worms is a sensitive indicator of adult worm viability and, in most experiments, was assessed at 72 h. In addition, adult worms were examined microscopically on a daily basis for 7–10 days to determine whether lower concentrations of drugs had any effects over a longer period of incubation. Results are expressed as mean Mf output ± SD over a 72 h period. Statistical significance between groups was calculated using the Mann Whitney test with P values<0.05 being considered significant.

male worms (B. pahangi) = assay: Adult male worm exposure in vitro; format: cell-based, Brugia pahangi; conditions: 100 nM, day 7 of exposure
Description: The remaining worms although alive, were extremely sluggish. […] Worms that were dying tended to burst and release their uterine contents and wells contained many embryonic stages in addition to Mf. […] By day 7 of exposure 100% of male worms exposed to 100 nM drug were dead.

L3 stage of B. pahangi = assay: L3 viability in vitro; format: cell-based, Brugia pahangi; conditions: 6 days exposure
Description: L3 stages were harvested from mosquitoes nine days post-infection. L3 were picked individually with a fine glass pipette, counted and washed three times in HBSS containing 1000 units/ml of penicillin and 1000 µg/ml streptomycin by sedimentation at room temperature. 20–30 L3 per well were plated out in duplicate in 24-well plates in 2.0 ml of WCM containing drug, or carrier alone (DMSO) and cultured at 37°C for up to 7 days. […] This experiment was repeated twice.

adult female B. pahangi [3] = assay: Short 24 h exposure of adult female worms, then medium alone; format: cell-based, Brugia pahangi; conditions: for mean Mf production: 24 h in drug and 24 h in medium alone; for lowest concentration with significantly fewer Mf: 250, 25, 10 nM tested
[4] = test system: adult female B. pahangi and Mf; assay: In vivo testing: adult female worms transplanted into the peritoneal cavity of BALB/c mice; parameters: species or system BALB/c mouse; conditions: 50 mg/Kg i.p. at day 0, 3 and 7
From the text: Adult worms were removed from the peritoneal cavity of infected jirds and rinsed in HBSS. 10 adult female worms were transplanted into the peritoneal cavity of each of ten male BALB/c mouse using standard methods, [28]. Adult worms were transferred into the peritoneal cavity of anaesthetized mice using a blunted glass hook. Not all mice received the full quota of 10 worms (see Table 1). […] This dose was selected on the basis of previous studies in a mouse xenograft model. […] The condition of any adult worms recovered was noted. Mf in the first 12 ml of peritoneal washings were pelleted by centrifugation and fixed in 2% formalin in water and stored at 4°C until counted. Mice were weighed at each time point to monitor any possible weight loss.

[5] = single dose of 50 mg/Kg, intra-peritoneal route; cited from earlier work
[6] = recovery 9 days after last dose

Compound: CCNC(=O)c1noc(-c2cc(C(C)C)c(O)cc2O)c1-c1ccc(CN2CCOCC2)cc1 [NVP-AUY922]
- IC50 (B. pahangi Hsp90): 0.64 nM
- IC50 (B. malayi Hsp90): 0.95 nM
- IC50 (Brugia Hsp90): ~1 nM
- % death by day 7 ([1]; 0.976 nM): 75%
- % death by day 7 ([1]; 1.95 nM): 100%
- adult worm survival at lower concentrations (adult female B. pahangi [2]; 10 and 5.0 nM, motility affected): did not die
- lowest concentration with significant inhibitory effect on Mf output (adult female B. pahangi [2]; 72 h exposure, titrated 500 nM to 1.0 nM): 10 nM
- adult worms killed (adult female B. pahangi [2]; 6 days exposure, 25 nM): 50%
- adult worms dead (adult female B. pahangi [2]; 6 days exposure, 25 nM, typical experiment): 3/6
- adult worms dead (adult female B. pahangi [2]; 6 days exposure, 50 nM, typical experiment): 4/6
- adult worms dead (adult female B. pahangi [2]; 6 days exposure, 100 nM and above): all adult worms were dead
- lowest concentration with significant decrease in Mf output (adult female B. pahangi [2]; 6 days exposure, not significant at 1.0 nM): 5.0 nM and 5 nM
- concentration with significant effect on Mf output (adult female B. pahangi [2]; initial screen 2.0 µM to 100 nM, adult female worms): ≤ 100 nM
- male worms dead (male worms (B. pahangi)): 100%
- effect on L3 (L3 stage of B. pahangi; 1 nM or below): no effect
- L3 dead (L3 stage of B. pahangi; 5.0 nM, remainder moving very slowly): approximately 30%
- L3 dead (L3 stage of B. pahangi; all concentrations down to and including 10 nM): 100%
- mean Mf production (adult female B. pahangi [3]; 10 nM, not significant vs DMSO): 910±674 Mf
- mean Mf production (adult female B. pahangi [3]; 25 nM): 100±60 Mf
- mean Mf production (adult female B. pahangi [3]; 250 nM): 11±23 Mf
- condition of adult worms (adult female B. pahangi [3]; 24 h exposure to 10 nM, day 9, vs DMSO controls): no obvious difference
- condition of adult worms (adult female B. pahangi [3]; 24 h exposure to 25 nM, day 9): noticeably more sluggish than control worms
- condition of adult worms (adult female B. pahangi [3]; 24 h exposure to 250 nM, 9 days in medium alone): barely moving, but they were still alive
- lowest concentration with significantly fewer Mf (adult female B. pahangi [3]; 24 h in drug and 48 h in medium alone): 10 nM
- lowest concentration with significantly fewer Mf (adult female B. pahangi [3]; after 24 h in drug): 25 nM
- Mean no Mf per mouse ([4]; first 12 ml of peritoneal washings): 4730±5101
- recovery of live worms ([4]; range over treated mice): 0–11%
- Total number worms recovered ([4]; recovered/transplanted): 8/48 ^**
- No. mice with live Mf [4, 6]: 2/5
- No. mice with viable worms [4, 6]: 2/5
- No. mice with worms [4, 6]: 5/5
- No. viable worms recovered [4, 6]: 2
- viable worms recovered (mean % ± SD) [4, 6]: 4.4±6.0%
- time of maximum plasma level post-dosing [5]: 0.25 h
